Results on one molecule are retold here after US20180000836A1, “Topical Treatment for Psoriasis” (priority 2016, published 2018).

This test can be described thus: Topical application of the preparation to affected skin areas of plaque psoriasis patients. The format is in vivo, human. Particulars: twice daily, six to twelve weeks. From the text: The topical application using the preparation herein for treatment of psoriasis according to the present invention, to accelerate healing, merely requires a once to twice daily application of the formed preparation to the affected areas for a period of six to twelve weeks. Generally, no special precautions are required other than the general precautions which accompany the topical application of topical steroids to the skin. Evaluation of the effectiveness of the preparation herein, is by simple examination of the patient and reduction of rash and other skin symptoms, and by changes in the amounts of itching present.
Topical application of the preparation for plaque psoriasis treatment herein to affected skin areas, on a twice, daily basis, generally produces beneficial effects on plaque psoriasis when applied over a period of time between six to twelve weeks. […] The clearing noted lasting for a prolonged period after treatment. […]
In a regimen for treatment of plaque psoriasis patients, the preparation herein is mixed and provided to the patient for topical application twice daily for a period of six to twelve weeks, depending on the individual patient results which may be evaluated after each four to six week period by an examination of the areas of body of the patient, and the reduction or total clearing of rash and other skin symptoms in those area. […]

With `CCC(=O)O[C@]1(C(=O)CCl)[C@@H](C)C[C@H]2[C@@H]3CCC4=CC(=O)C=C[C@]4(C)[C@@]3(F)[C@@H](O)C[C@@]21C` [clobetasol propionate], the “outcome of topical treatment of plaque psoriasis (clearing of affected areas), in words” value is given as “reduction or elimination of the plaque psoriasis”.
